The values that follow come from publication PMC8348589, “Scarlet Flax Linum grandiflorum (L.) In Vitro Cultures as a New Source of Antioxidant and Anti-Inflammatory Lignans” (Molecules, 2021).

Several values for one entry are separate records, joined by “and”; a condition that tells them apart may be missing. Equal values may be shown once. Read-outs that look alike come from different tables or passages of the source.

One experiment deals with T1, COX-1 (Ovis aries, UniProt P05979).
T1 sequence (P05979 25-600): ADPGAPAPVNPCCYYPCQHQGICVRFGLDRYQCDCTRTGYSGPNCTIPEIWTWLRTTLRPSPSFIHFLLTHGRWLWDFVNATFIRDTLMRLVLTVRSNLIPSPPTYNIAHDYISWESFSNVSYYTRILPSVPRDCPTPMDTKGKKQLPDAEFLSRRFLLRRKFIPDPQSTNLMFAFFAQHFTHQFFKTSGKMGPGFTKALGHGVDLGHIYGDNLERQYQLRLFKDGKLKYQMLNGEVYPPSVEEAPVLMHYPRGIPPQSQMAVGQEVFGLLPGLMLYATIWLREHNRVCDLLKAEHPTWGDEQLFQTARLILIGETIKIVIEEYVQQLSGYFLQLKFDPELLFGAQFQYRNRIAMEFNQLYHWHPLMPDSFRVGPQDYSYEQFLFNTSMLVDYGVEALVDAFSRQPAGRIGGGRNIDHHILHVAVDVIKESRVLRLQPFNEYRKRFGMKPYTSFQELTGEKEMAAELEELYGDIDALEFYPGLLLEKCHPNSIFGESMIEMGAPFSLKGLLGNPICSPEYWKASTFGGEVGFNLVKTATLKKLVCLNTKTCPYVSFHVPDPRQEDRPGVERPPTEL
The experiment can be described thus: COX-1 inhibition assay (Cayman Chem kit).

The target of the next experiment is T2, COX-2 (Homo sapiens, UniProt P35354).
T2 sequence (P35354 18-604): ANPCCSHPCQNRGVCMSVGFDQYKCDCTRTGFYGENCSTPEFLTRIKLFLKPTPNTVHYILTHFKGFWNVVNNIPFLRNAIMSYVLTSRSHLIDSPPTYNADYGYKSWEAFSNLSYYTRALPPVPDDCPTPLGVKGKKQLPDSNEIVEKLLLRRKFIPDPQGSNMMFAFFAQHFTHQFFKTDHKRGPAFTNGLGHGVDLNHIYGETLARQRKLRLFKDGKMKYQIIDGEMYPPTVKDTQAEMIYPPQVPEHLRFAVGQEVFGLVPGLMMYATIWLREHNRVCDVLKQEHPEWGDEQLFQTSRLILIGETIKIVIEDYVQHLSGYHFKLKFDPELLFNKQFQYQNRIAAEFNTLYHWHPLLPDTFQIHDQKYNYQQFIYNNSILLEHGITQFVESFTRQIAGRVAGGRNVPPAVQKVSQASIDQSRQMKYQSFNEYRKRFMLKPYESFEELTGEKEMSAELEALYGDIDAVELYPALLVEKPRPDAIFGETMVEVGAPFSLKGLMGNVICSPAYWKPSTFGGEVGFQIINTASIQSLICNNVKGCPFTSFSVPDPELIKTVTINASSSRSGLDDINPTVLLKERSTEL
Kind of experiment: COX-2 inhibition assay (Cayman Chem kit).

Experiment [1] relates to L. grandiflorum hypocotyl and cotyledon explants. Kind of experiment: Callus induction frequency on MS medium with PGRs. The experiment is classed as cell-based, Linum grandiflorum. To be noted: 1.0 mg/L NAA. The method, then: (§1) Both the cotyledon (0.5 cm) and hypocotyl (1.0 cm) explants of L. grandiflorum of 5-day old seedlings, grown in vitro, were employed as the source of the explants and inoculated on three different experimental media containing sucrose (30g/L), agar (8 g/L) along with various concentrations of α-naphthaleneacetic acid (NAA: 0.1, 1.0, 2.5, 5.0, 10 mg/L), thidiazuron (TDZ: 0.1, 1.0, 2.5, 5.0, 10 mg/L) and a combination of both (TDZ: 0.1, 1.0, 2.5, 5.0, 10 mg/L and NAA: 0.1 mg/L constant) and placed in a growth room at 25 ± 2 °C temperature, using light intensity of 40 μmol/m^2/s at around a 16/8 h (light/dark) photoperiod. Four explants were inoculated for each condition. All experiments were conducted twice for each treatment. Media without PGRs addition were used as controls. The cultures were harvested at day 30 after inoculation. Biomass determination (fresh weights (FW) and dried weight (DW)) were determined for each condition. For dry weight (DW) estimation, cells were frozen and lyophilized 48 h.

Experiment [2] deals with L. grandiflorum callus cultures. The experiment can be described thus: Biomass accumulation of callus cultures. The experiment is classed as cell-based, Linum grandiflorum. The following applies: harvested day 30. Here is the method: as §1
Setting [3] is: read-out: COX-1 IC50 (in µM), purified (neo)lignans.
The mark [4] stands for this setting: read-out: COX-2 IC50 (in µM), purified (neo)lignans.

Description for COX-1: (§2) COX-1 (Ovine) and COX-2 (Human) inhibition assays were performed using the corresponding Cayman Chem kits. The assays were performed according to the manufacturer’s instructions. Arachidonic acid (1.1 mM) was used as substrate. Reaction was followed at 590 nm in a BioTek Instrument Synergy II microplate reader.
Description for COX-2: as §2

`COc1cc(C2Oc3c(OC)cc(/C=C/CO)cc3C2CO)ccc1O` (stereo not shown) [DCA, dehydrodiconiferyl alcohol]: the IC50 on COX-1 (setting [3]) stood at 51.3 ± 0.3 µM; at COX-2 (setting [4]), 19.2 ± 2.5 µM.

Consider `COc1cc(C[C@H]2CO[C@H](c3ccc(O)c(OC)c3)[C@H]2CO)ccc1O` [LARI, lariciresinol], for which the concentration for half-maximal inhibition (IC50) against COX-1 came to 24.2 ± 6.9 µM; on COX-2 it was 34.6 ± 2.9 µM.

For the compound `O=C(O)Cc1cccc2ccccc12` [NAA, α-naphthalene acetic acid], the callus induction frequency is 87% in experiment [1] (cotyledon explants); 95% and 95.2% in experiment [1] (hypocotyl explants). The “biomass accumulation (DW)” value in experiment [2] (cotyledon-derived callus, 1.0 mg/L NAA) is listed as 11.4 g/L; in experiment [2] (hypocotyl-derived callus), 13 g/L.

For the compound `COc1cc(C[C@@H](CO)[C@H](CO)Cc2ccc(O)c(OC)c2)ccc1O` [SECO, secoisolariciresinol], the IC50 on COX-1 (setting [3]) was 21.7 ± 1.9 µM; on COX-2 (setting [4]) it was 32.7 ± 0.8 µM.

One may read the IC50 as the concentration needed to halve the response being measured.
